Values of other authors as cited in patent US20250177296A1, “SLURRY AND SOLUTION COMPOSITIONS” (MIRAKI INNOVATION THINK TANK LLC, priority 2018, published 2025).

Conditions: pretreatment with 2% lidocaine

CCN(CC)CC(=O)Nc1c(C)cccc1C [lidocaine]
Effect of pretreatment on pain response associated with hypertonic saline: attenuates pain response
